{"source": "patent US20240083998A1", "about": "“PREVENTION AND TREATMENT OF STEROID-RESISTANT OR GUT GRAFT-VERSUS-HOST DISEASE (GVHD)” (CIY OF HOPE, priority 2021, published 2024)", "test_system": "BALB/c recipients", "protocol": "Splenocytes and T cell depleted bone marrow cells from donors were injected via tail vein into recipients 6-8 hours after irradiation. […] Depletion of T cells from the bone marrow was accomplished by using biotin-conjugated anti-CD4 and anti-CD8 mAbs, and streptavidin Microbeads (Miltenyi Biotec, Germany), followed by passage through an autoMACS Pro cell sorter (Miltenyi Biotec, Germany). Microbeads (Ly-2, Miltenyi Biotec, Germany) were used for to purify CD8^+T cell, and purity was>99%. The assessment and scoring of clinical signs of GVHD have been described in previous publications^60.\nELISA: Reg3γ(antibodies online), ST2 (R&D system) and sTNFR1 (Thermo Scientific) in serum were measured by enzyme-linked immune sorbent assay (ELISA) according to manufacturer's protocol. Serum was collected and spun down at 2000 rpm for 10 min at 4° C. Clear supernatant was collected and stored at −20° C. until ELISA analysis. […]\nHistological analysis: Tissue specimens were fixed in formalin before embedding in paraffin blocks, sectioned and stained with H&E. Slides were examined at 100× or 200× magnification and visualized with a Zeiss Observer II. […] For Paneth cell quantification, a total of 9 pictures from 3 different locations of the H&E-stained slides from one mouse were taken under 200× magnification, and total Paneth cell and crypt numbers were counted, Paneth cell numbers per crypt are shown. […]"}
{"smiles": "C[C@@H]1C[C@H]2[C@@H]3CCC4=CC(=O)C=C[C@]4(C)[C@@]3(F)[C@@H](O)C[C@]2(C)[C@@]1(O)C(=O)CO", "note": "[DEX, Dexamethasone]", "values": [{"measurement": "IL-17A+IL-22−CD4+Th17 and IL-17A+IL-22−CD8+Tc17 cells among CD4+ and CD8+T cells", "setting": "recipients treated with DEX, 7 days after HCT", "value": "1-5%"}, {"measurement": "survival after HCT", "setting": "single injection 5 mg/Kg on day 3 (1-DEX), mild clinical GVHD", "value": "up to 20 days"}]}
